Where two headings read alike, the source gives them in different places.
Tests used:
LC3A/B puncta = assay: Autophagy induction analysis (LC3A/B puncta immuno-staining); assay type: cell-based, human; conditions: for Exp. 2, normalized change of nuclei numbers (Less cells): 20X objective, lysosomal LAMP co-staining
Procedure: Immuno-staining of LC3A/B was performed, following a standard protocol. Briefly, WI-38 cells were treated with small molecules for 24 hrs, and then processed and incubated with primary antibody (Cell Signaling, rabbit anti-LC3A/B, 1:100) overnight at 4° C. Next day, samples were processed and incubated with fluorophore-conjugated secondary antibody and further incubated with DAPI dye. Images were collected on the INCell Analyzer 2000 (Experiment 1: 10× objective; Experiment 2: 20× objective) and analyzed with the Developer Toolbox. For Experiment 2, lysosomal-associated membrane protein 2 (LAMP2) was also counter-stained to identify the LC3A/B puncta that colocalize with lysosome and the data were analyzed by the MetaXpress software (Molecular Devices, version 5.1). The intensity of total (Exp. 1) or LAMP2-colocalized LC3A/B puncta (Exp. 2) was normalized the total numbers nuclei in the fields.
These assays were performed, following the same procedures to analyze DNA-damage markers. WI-38 cells were incubated with small molecules for 24 hrs, and then processed and incubated with primary antibody (rabbit anti-LC3A/B, 1:100) overnight at 4 C. The next day, samples were processed and incubated with fluorophore-conjugated secondary antibody and further incubated with DAPI dye. Images were collected on an INCell Analyzer 2000 and analyzed with the Developer software. Total LC3A/B puncta intensity was normalized the total numbers of DAPI-positive nuclei.

[1] = tested on: PC12 cells expressing poly(Q)103-Htt-EGFP; assay: Poly(Q) toxicity & viability analysis (cellular model of Huntington's disease); assay type: cell-based, rat; conditions: for M = Huntington's poly-Q toxicity attenuation: score; for K = Huntington's poly-Q toxicity attenuation: summary score
Procedure: Viability assays were performed as described before (Aiken et al., 2004). PC12 cells that stably express the inducible poly(Q)103-Htt-EGFP were grown in culture. […] Cell viability was analyzed 48 hrs later by measuring ATP content with CellTiter-Glo.
Toxic protein aggregation is a key feature of many age-related neurodegenerative diseases, including Alzheimer's and Huntington's disease (Caughey and Lansbury, 2003; Ross and Poirier, 2004). A number of animal models (Phillips et al., 2009) and cell models (Schlachetzki et al., 2013) have been established to study these diseases. For this purpose, PC12 rat pheochromocytoma cells display neuronal features and produce neurotransmitters and have been used extensively to study neuronal phenotypes, including synaptic transmission and neurological diseases. […] In this model, induced expression of poly(Q)103-Htt-EGFP could lead to the formation of aggregates and exert substantial toxicity in cells.

C. elegans = C. elegans lifespan assays (liquid and plate); assay type: in vivo, Caenorhabditis elegans; conditions: for ILS at 60 µM / ILS at 66 µM: Caenorhabditis elegans; for Extension of C. elegans' lifespan (qualitative): in at least 3 to 4 trials, group range ~10% to ~50%; for O = Life span- extending scores in worms: score scale 0 to 2, 4 to 6 independent trials; for M = Lifespan-extending scores in worms: summary score
[2] = Summary score for characterization of 38 core set hits; conditions: for D = Triple resistant: 2-point score, multiplex resistance (cadmium, MMS, H2O2); for S = Sum of Negative scores: human; for C = H2O2- & Cd-resistant: score, resistance to both H2O2 and cadmium
Procedure: 38 “core set” small molecules are listed and are assigned a score, based on the result for each individual characterization. From our small molecule screen for H2O2-resistance, we isolated 61 top hits. […] Specifically, a 2-point score was assigned to the most well-known and prominent longevity-related phenotypes, such as multiplex resistance, activation of FOXO3 and/or NRF2, and down-regulation of mTOR. Small molecules were also analyzed for their ability to extend C. elegans' lifespan in 4 to 6 independent trials, and the lifespan score scale is from 0 to 2: 0 for no obvious effects, 1 for lifespan extension observed in 2 trials, 2 for observed in more than 2 trials. Certain molecules appeared to have DNA-damaging effects and/or potential cell-toxicity in cultured human cells, and they receive a negative point.

[3] = Exp. 1, 10 μM, 10X objective, WI-38 cells
[4] = 60 μM, in liquid, wild type, with FuDR, 1.0 × 10^9 bacteria/ml, read-out: relative change of mean lifespan vs control, Trial 1
[5] = 60 μM, in liquid, wild type, with FuDR, 2.5 × 10^9 bacteria/ml, read-out: relative change of mean lifespan vs control, Trial 2
[6] = 60 μM, on plate, CF512 temperature-sensitive sterile animals, without FuDR, 2.0 × 10^10 bacteria/ml, read-out: relative change of mean lifespan vs control, Trial 3
[7] = Assay 2(z), 1.0 × 10^9 bacteria/ml, wild type + FuDR (2012 July), read-out: Lifespan assay in liquid
[8] = Assay 3(aa), 2.5 × 10^9 bacteria/ml, wild type + FuDR, read-out: Lifespan assay in liquid
[9] = Assay 4(ab), 2.0 × 10^10 bacteria/ml, CF512 worms, no FuDR, read-out: Lifespan assay on plates
[10] = 60 μM, on plate, CF512 temperature-sensitive sterile animals, without FuDR, 1.0 × 10^11 bacteria/ml, read-out: relative change of mean lifespan vs control, Trial 4
[11] = Assay 5(ac), 1.0 × 10^11 bacteria/ml, CF512 worms, no FuDR, read-out: Lifespan assay on plates

SMILES | Exp. 1, induction of LC3A/B puncta (Up), total intensity normalized by total number of nuclei in the fields (LC3A/B puncta; [3]) | Exp. 2, normalized change of nuclei numbers (Less cells) (LC3A/B puncta; Exp. 2, 10 μM, WI-38 cells) | Exp. 2, normalized change of nuclei numbers (Less cells) (LC3A/B puncta; Exp. 2, 20 μM, WI-38 cells) | H = Potential Autophagy Induction (LC3A/B puncta; score) | H = Potential Autophagy Induction (LC3A/B puncta; summary score) | M = Huntington's poly-Q toxicity attenuation [1] | K = Huntington's poly-Q toxicity attenuation [1] | ILS at 60 µM (C. elegans; [4]) [%] | ILS at 60 µM (C. elegans; [5]) [%] | ILS at 60 µM (C. elegans; [6]) [%] | ILS at 66 µM (C. elegans; [7]) [%] | ILS at 66 µM (C. elegans; [8]) [%] | ILS at 66 µM (C. elegans; [9]) [%] | Extension of C. elegans' lifespan (qualitative) (C. elegans) | O = Life span- extending scores in worms (C. elegans) | M = Lifespan-extending scores in worms (C. elegans) | D = Triple resistant [2] | S = Sum of Negative scores [2] | C = H2O2- & Cd-resistant [2] | ILS at 60 µM (C. elegans; [10]) [%] | also measured
O=C(Nc1cccc(C(F)(F)F)c1)c1ccc([N+](=O)[O-])o1 [Gr-1E] | Up, 260%, p < 0.01 | Less cells, 75%, | Less cells, 58%, | 0 | 0 | 0 | 0 | 17.4 | 6.3 | 13.8 | 17.4 | 6.3 | 13.8 | could extend animal's lifespan | 2 (2 for observed in more than 2 trials) | 2 (2 for observed in more than 2 trials) | 0 | 0 | 1 | – | –
NS(=O)(=O)c1ccc(NC(=O)c2ccc([N+](=O)[O-])o2)cc1 [Gr-1A] | p < 0.001; Up, 1876%, | Less cells, 66%, | Less cells, 57%, | 1 | 1 | 1 | 1 | -1.3 | 0.2 | 14.2 | -1.3 | 0.2 | 14.2 | – | 0 | 0 | 0 | 1 | 1 | – | Assay 15: Potential autophagy induction by LC3A/B puncta assays (LC3A/B puncta; 10 uM & 20 uM, YES/NO): YES; Exp. 1, normalized change of nuclei numbers (Less cells) (LC3A/B puncta; [3]): Less cells, 55%,; Viability of PC12 cells upon induction of toxic poly(Q)103-Htt-EGFP aggregates ([1]; 2.5 μM, 5 μM, 10 μM and 20 μM): consistently increased the viability; Assay 20: Huntington's poly-Q toxicity attenuation ([1]; 10 uM, YES/NO): YES
Cc1cc(N)n(-c2ccccc2C(=O)O)n1 [Gr-6A] | – | – | – | 0 | 0 | 0 | 0 | 5.5 | 6.8 | 16.9 | 5.5 | 6.8 | 16.9 | – | 0 | 0 | 2 | 0 | 1 | -2.7 | ILS at 66 µM (C. elegans; [11]): -2.7%
[O-][n+]1onc2c3nsnc3c(Br)cc21 [O17] | – | – | – | 0 | 0 | 0 | 0 | 1.7 | 22.6 | 19.7 | 1.7 | 22.6 | 19.7 | could extend animal's lifespan | 2 (2 for observed in more than 2 trials) | 2 (2 for observed in more than 2 trials) | 0 | 0 | 0 | 17.8 | relative change of mean lifespan vs control, Trial 6 (confirmative) (C. elegans; 60 μM, on plate, temperature-sensitive sterile animals, without FuDR, 1.0 × 10^11 bacteria/ml): +20.8%; relative change of mean lifespan vs control, Trial 5 (confirmative) (C. elegans; 60 μM, on plate, temperature-sensitive sterile animals, without FuDR, 2.0 × 10^10 bacteria/ml): +15.2%; ILS at 66 µM (C. elegans; [11]): 17.8%; ILS at 66 µM (C. elegans; Assay 6(ad), 2.0 × 10^10 bacteria/ml, CF512 worms, no FuDR, read-out: Lifespan assay on plates): 15.2%; ILS at 66 µM (C. elegans; Assay 7(ae), 1.0 × 10^11 bacteria/ml, CF512 worms, no FuDR, read-out: Lifespan assay on plates): 20.8%
Cc1ccc(NC(=O)c2ccc([N+](=O)[O-])o2)cc1C [Gr-1F] | Up, 151%, p < 0.01 | Less cells, 82%, | Less cells, 73%, | 0 | 0 | 0 | 0 | 22.3 | 0.6 | 11.3 | 22.3 | 0.6 | 11.3 | – | 1 (1 for lifespan extension observed in 2 trials) | 1 (1 for lifespan extension observed in 2 trials) | 0 | 2 | 1 | – | –
